Results: ChEMBL document CHEMBL4477267, “Discovery of oxa-sultams as RORc inverse agonists showing reduced lipophilicity, improved selectivity and favorable ADME properties” (Bioorg Med Chem Lett, 2016)
Values after ≈ are worked out from the molar mass of the structure shown.

Assays:
[1] = target: T1, Nuclear receptor ROR-gamma (Homo sapiens) (UniProt P51449); assay: Inverse agonist activity at human RORc-LBD assessed as inhibition of SRC1 co-activator peptide recruitment by FRET assay relative to apo-RORc basal activity
T1 sequence (whole entry): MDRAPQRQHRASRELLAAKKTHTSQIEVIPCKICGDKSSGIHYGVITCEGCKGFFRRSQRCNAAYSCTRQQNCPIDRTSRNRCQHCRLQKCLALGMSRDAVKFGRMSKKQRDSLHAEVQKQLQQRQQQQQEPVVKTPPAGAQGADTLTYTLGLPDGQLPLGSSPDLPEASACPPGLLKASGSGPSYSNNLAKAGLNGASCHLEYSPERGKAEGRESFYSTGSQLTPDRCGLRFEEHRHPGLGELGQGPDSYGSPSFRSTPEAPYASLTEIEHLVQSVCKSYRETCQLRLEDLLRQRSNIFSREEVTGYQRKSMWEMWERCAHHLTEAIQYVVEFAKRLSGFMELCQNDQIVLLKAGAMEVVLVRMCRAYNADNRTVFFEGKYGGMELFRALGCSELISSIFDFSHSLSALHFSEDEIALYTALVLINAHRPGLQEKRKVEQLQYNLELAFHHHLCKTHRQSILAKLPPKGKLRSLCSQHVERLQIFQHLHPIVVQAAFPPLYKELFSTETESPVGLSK

[2] = target: T2, Nuclear receptor ROR-gamma (Homo sapiens, UniProt P51449); assay: Inverse agonist activity at human RORc-LBD assessed as inhibition of SRC1 co-activator peptide recruitment by FRET assay
T2 sequence (P51449 whole entry): T1 sequence (whole entry)

[3] = test system: PBMC; assay: Cytotoxicity against human PBMC assessed as cell viability measured after 48 hrs by CellTiter-Glo assay; format: cell-based
[4] = target: T2, Nuclear receptor ROR-gamma; assay: Inverse agonist activity at GAL4-fused human RORc expressed in HEK293 cells assessed as […] of basal transcriptional activity by dual-glo luciferase reporter gene assay; format: cell-based
[5] = test system: PBMC; assay: Inhibition of IFN-gamma production in anti-CD3 and anti-CD28 stimulated human PBMC measured […] by Sandwich ELISA; format: functional, cell-based
[6] = test system: PBMC; assay: Inhibition of IL-17AA production in anti-CD3 and anti-CD28 stimulated human PBMC measured […] by Sandwich ELISA relative to control; format: functional
[7] = target: T3, Nuclear receptor ROR-beta (Homo sapiens, UniProt Q92753); assay: Inverse agonist activity at GAL4-fused human RORb expressed in HEK293 cells assessed as […] of basal transcriptional activity by dual-glo luciferase reporter gene assay; format: cell-based
T3 sequence (Q92753 whole entry): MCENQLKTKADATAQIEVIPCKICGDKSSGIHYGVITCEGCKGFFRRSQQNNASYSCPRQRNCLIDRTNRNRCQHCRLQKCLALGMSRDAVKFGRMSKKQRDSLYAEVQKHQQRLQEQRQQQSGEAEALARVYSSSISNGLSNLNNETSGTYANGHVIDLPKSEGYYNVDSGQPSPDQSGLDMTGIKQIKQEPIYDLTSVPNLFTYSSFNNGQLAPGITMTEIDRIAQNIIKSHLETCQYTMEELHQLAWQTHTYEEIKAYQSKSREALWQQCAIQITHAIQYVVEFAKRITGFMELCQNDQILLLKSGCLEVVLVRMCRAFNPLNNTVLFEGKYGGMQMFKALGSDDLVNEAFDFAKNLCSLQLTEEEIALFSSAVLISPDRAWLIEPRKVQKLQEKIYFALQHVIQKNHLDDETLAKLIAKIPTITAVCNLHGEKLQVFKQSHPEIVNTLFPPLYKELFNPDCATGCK

[8] = test system: PBMC; assay: Inhibition of IL-17AA production in anti-CD3 and anti-CD28 stimulated human PBMC measured […] by Sandwich ELISA; format: functional, cell-based
[9] = target: T4, Nuclear receptor ROR-alpha (Homo sapiens, UniProt P35398); assay: Inverse agonist activity at GAL4-fused human RORa expressed in HEK293 cells assessed as […] of basal transcriptional activity by dual-glo luciferase reporter gene assay; format: cell-based
T4 sequence (P35398 whole entry): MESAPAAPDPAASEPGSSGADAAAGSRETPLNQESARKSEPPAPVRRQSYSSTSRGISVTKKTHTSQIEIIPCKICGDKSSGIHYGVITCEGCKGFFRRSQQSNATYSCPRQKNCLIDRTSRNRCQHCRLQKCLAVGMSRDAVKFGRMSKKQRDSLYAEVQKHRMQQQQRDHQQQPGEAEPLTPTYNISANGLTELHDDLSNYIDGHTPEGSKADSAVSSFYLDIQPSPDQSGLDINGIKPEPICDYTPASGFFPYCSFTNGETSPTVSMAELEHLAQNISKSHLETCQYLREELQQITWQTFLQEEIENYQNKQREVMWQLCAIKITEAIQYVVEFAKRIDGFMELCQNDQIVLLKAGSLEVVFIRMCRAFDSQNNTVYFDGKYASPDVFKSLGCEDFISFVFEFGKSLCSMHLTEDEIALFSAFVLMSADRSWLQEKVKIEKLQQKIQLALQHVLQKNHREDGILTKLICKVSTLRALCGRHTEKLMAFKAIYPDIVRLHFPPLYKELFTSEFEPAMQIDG

[10] = Apparent permeability from apical to basolateral side in MDCK cells; format: ADME, cell-based, Canis lupus familiaris; settings: dog
[11] = Protein binding in rat plasma by equilibrium dialysis; format: ADME, cell-free; settings: read-out: PPB (converted)
[12] = Protein binding in human plasma by equilibrium dialysis; format: ADME, cell-free; settings: read-out: PPB (converted)
[13] = Protein binding in mouse plasma by equilibrium dialysis; format: ADME, cell-free; settings: read-out: PPB (converted)
[14] = Aqueous kinetic solubility of the compound in pH 7.4 by high-throughput assay; format: physicochemical
[15] = Apparent permeability from basolateral to apical side in MDCK cells; format: ADME, cell-based, Canis lupus familiaris; settings: dog
[16] = Clearance in human liver microsomes relative to liver blood flow; format: ADME, Microsome; settings: read-out: CLH
[17] = Clearance in rat liver microsomes relative to liver blood flow; format: ADME, Microsome; settings: read-out: CLH
[18] = Efflux ratio of apparent permeability from basolateral to apical over apical to basolateral side in MDCK cells; format: ADME, cell-based, Canis lupus familiaris; settings: dog

## CC(=O)N1CCN(c2ccc(CN3C[C@@H](C)OC[C@H](c4ccccc4)S3(=O)=O)c(F)c2)CC1
[1]
  Efficacy: 100%
[2]
  EC50: 21 nM

## CC(=O)N1CCN(c2ccc(CN3[C@@H](C)CC[C@H](c4ccc(C#N)cc4)S3(=O)=O)c(F)c2)CC1
[1]
  Efficacy: 62%
[2]
  EC50: 3900 nM

## CC(=O)N1CCN(c2ccc(CN3[C@@H](C)CC[C@H](c4ccccc4C#N)S3(=O)=O)c(F)c2)CC1
[1]
  Efficacy: 76%
[2]
  EC50: 1900 nM

## CC(=O)N1CCN(c2ccc(CN3[C@@H](C)COC[C@H](c4ccccc4)S3(=O)=O)c(F)c2)CC1
[1]
  Efficacy: 100%
[3]
  EC50: > 20000 nM
[4]
  EC50: 64 nM
[5]
  EC50: > 20000 nM
[2]
  EC50: 8 nM
[6]
  Imax: 80%
[7]
  EC50: > 10000 nM
[8]
  EC50: 750 nM
[9]
  EC50: > 10000 nM

## CC(=O)N1CCN(c2ccc(CN3[C@@H](C)CC[C@H](c4ccccn4)S3(=O)=O)c(F)c2)CC1
[1]
  Efficacy: 87%
[2]
  EC50: 120 nM

## COc1ccc([C@H]2CC[C@H](C)N(Cc3ccc(N4CCN(C(C)=O)CC4)cc3F)S2(=O)=O)cc1
[1]
  Efficacy: 96%
[2]
  EC50: 28 nM

## COc1cccc([C@H]2CC[C@H](C)N(Cc3ccc(N4CCN(C(C)=O)CC4)cc3F)S2(=O)=O)c1
[1]
  Efficacy: 97%
[2]
  EC50: 58 nM

## CC(=O)N1CCN(c2ccc(CN3[C@@H](C)CC[C@H](c4ccsc4)S3(=O)=O)c(F)c2)CC1
[1]
  Efficacy: 98%
[2]
  EC50: 13 nM

## CC(=O)N1CCN(c2ccc(CN3CCOC[C@H](c4ccccc4)S3(=O)=O)c(F)c2)CC1
[1]
  Efficacy: 99%
[3]
  EC50: > 20000 nM
[5]
  EC50: > 20000 nM
[2]
  EC50: 31 nM
[6]
  Imax: 59%
[8]
  EC50: 1200 nM

## CC(=O)N1CCN(c2ccc(CN3[C@@H](C)CC[C@H](c4ncccn4)S3(=O)=O)c(F)c2)CC1
[1]
  Efficacy: 76%
[2]
  EC50: 410 nM

## CC(=O)N1CCN(c2ccc(CN3[C@@H](C)CC[C@H](c4cccs4)S3(=O)=O)c(F)c2)CC1
[1]
  Efficacy: 91%
[2]
  EC50: 2 nM

## CC(=O)N1CCN(c2ccc(CN3[C@@H](C)CC[C@H](c4ccncc4)S3(=O)=O)c(F)c2)CC1
[1]
  Efficacy: 89%
[2]
  EC50: 410 nM

## CC(=O)N1CCN(c2ccc(CN3CCCC[C@H](c4ccccc4)S3(=O)=O)c(F)c2)CC1
[1]
  Efficacy: 99%
[3]
  EC50: > 20000 nM
[4]
  EC50: 25 nM
[5]
  EC50: > 20000 nM
[2]
  EC50: 6 nM
[6]
  Imax: 80%
[7]
  EC50: 6800 nM
[8]
  EC50: 430 nM
[9]
  EC50: 6800 nM

## CC(=O)N1CCN(c2ccc(CN3[C@@H](C)CC[C@H](c4ccc(Cl)cc4)S3(=O)=O)c(F)c2)CC1
[1]
  Efficacy: 99%
[2]
  EC50: 34 nM

## CC(=O)N1CCN(c2ccc(CN3[C@H](C)COC[C@H](c4ccccc4)S3(=O)=O)c(F)c2)CC1
[1]
  Efficacy: 98%
[2]
  EC50: 73 nM

## CC(=O)N1CCN(c2ccc(CN3[C@@H](C)CC[C@H](c4ccccc4)S3(=O)=O)c(F)c2)CC1
[10]
  Papp A→B: 24 ×10⁻⁶ cm/s
[11]
  fraction unbound: 0.05
[3]
  EC50: > 20000 nM
[12]
  fraction unbound: 0.05
[4]
  EC50: 47 nM
[5]
  EC50: > 20000 nM
[13]
  fraction unbound: 0.04
[14]
  solubility kinetic: 20 µM (≈ 9.19 µg/mL)
[6]
  Imax: 82%
[7]
  EC50: 5400 nM
[15]
  Papp B→A: 32 ×10⁻⁶ cm/s
[8]
  EC50: 450 nM
[9]
  EC50: 5400 nM

## CC(=O)N1CCN(c2ccc(CN3[C@@H](C)CC[C@H](c4cccnc4)S3(=O)=O)c(F)c2)CC1
[1]
  Efficacy: 73%
[2]
  EC50: 820 nM

## CC(=O)N1CCN(c2ccc(CN3[C@@H](C)CC[C@H](c4ccccc4Cl)S3(=O)=O)c(F)c2)CC1
[1]
  Efficacy: 91%
[2]
  EC50: 230 nM

## CC(=O)N1CCN(c2ccc(CN3[C@@H](C)CC[C@H](c4cccc(Cl)c4)S3(=O)=O)c(F)c2)CC1
[1]
  Efficacy: 99%
[2]
  EC50: 7 nM

## CC(=O)N1CCN(c2ccc(CN3C[C@H](C)OC[C@H](c4ccccc4)S3(=O)=O)c(F)c2)CC1
[16]
  hepatic extraction ratio: > 0.7
[1]
  Efficacy: 100%
[10]
  Papp A→B: 16 ×10⁻⁶ cm/s
[17]
  hepatic extraction ratio: > 0.7
[11]
  fraction unbound: 0.07
[3]
  EC50: > 20000 nM
[12]
  fraction unbound: 0.11
[4]
  EC50: 22 nM
[5]
  EC50: > 20000 nM
[13]
  fraction unbound: 0.06
[14]
  solubility kinetic: 38 µM (≈ 18.1 µg/mL)
[2]
  EC50: 3 nM
[6]
  Imax: 67%
[7]
  EC50: > 10000 nM
[15]
  Papp B→A: 15 ×10⁻⁶ cm/s
[8]
  EC50: 450 nM
[9]
  EC50: > 10000 nM
[18]
  efflux ratio: 1

## CC(=O)N1CCN(c2ccc(CN3[C@@H](C)CC[C@H](c4cccc(C#N)c4)S3(=O)=O)c(F)c2)CC1
[1]
  Efficacy: 64%
[2]
  EC50: 1300 nM

## COc1ccccc1[C@H]1CC[C@H](C)N(Cc2ccc(N3CCN(C(C)=O)CC3)cc2F)S1(=O)=O
[1]
  Efficacy: 94%
[2]
  EC50: 94 nM
